Publication PMC3288053 (PLoS ONE, 2012)

Tests used:
FXR: RXRα = biological target: T1, FXR: RXRα (Homo sapiens, UniProt P19793+Q96RI1); test: Transient transfection luciferase assay in HEK293 cells (FXRE); assay type: cell-based; conditions: HEK293, 24 h
T1 construct: expressed in transfected cells; host or cells: HEK293
Method: HEK293 cells are transiently transfected by Lipo2000 respectively with RXRα, PPARγ, FXR, and LXRα plasmids plus pGL3-RXRE luciferase vector and renilla luciferase vector for 5 hours. Cells are then incubated with indicated concentrations of compounds for another 24 h and finally lysed. Luciferase activities are measured using Dual Luciferase Assay System kit. Rut dose-dependently activates (a) RXRα:RXRα and (b) PPARγ:RXRα activities. Rut has no effects on (c) FXR: RXRα and (d) LXRα:RXRα activities. Data are presented as means ± s.e.m (*P<0.05, **P<0.01) from three independent experiments.
HEK293 cells are transfected with luciferase reporter plus Renilla luciferase vector and other plasmids if needed for 5 hours, and cells are then incubated with indicated concentrations of compounds for another 24 h. Finally cells are lysed and luciferase activities are measured using Dual Luciferase Assay System kit. The results are presented as the fold activation relative to untreated cells after normalization with Renilla luciferase values. Each experiment is repeated at least twice, with each sample analyzed in triplicates.

[1] = biological target: T2, PPARγ-LBD/SRC1_613–773 interaction (Homo sapiens, UniProt P37231); test: SPR SRC1 recruitment assay; assay type: binding; conditions: 1 µM PPARγ-LBD incubated with compound 1 hour
T2 construct: pET15b-PPARγ-LBD202–477; His-tag (N); made in house; host or cells: E. coli BL21 (DE3)
T2 sequence (P37231 230-505): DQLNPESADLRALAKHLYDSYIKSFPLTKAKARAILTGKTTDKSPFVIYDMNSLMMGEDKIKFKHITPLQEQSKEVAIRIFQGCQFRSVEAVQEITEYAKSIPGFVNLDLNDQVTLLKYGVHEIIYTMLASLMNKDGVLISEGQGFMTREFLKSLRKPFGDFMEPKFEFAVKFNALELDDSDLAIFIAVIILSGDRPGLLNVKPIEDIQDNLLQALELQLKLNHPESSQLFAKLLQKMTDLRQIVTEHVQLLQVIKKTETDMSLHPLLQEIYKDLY
T2 sequence (Q15788 613-773 partner limits assumed): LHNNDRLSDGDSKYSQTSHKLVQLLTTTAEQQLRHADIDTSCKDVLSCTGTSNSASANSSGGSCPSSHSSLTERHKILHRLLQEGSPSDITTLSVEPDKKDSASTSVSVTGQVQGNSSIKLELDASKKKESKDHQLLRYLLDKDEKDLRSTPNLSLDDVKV
Method: (§1) Binding affinities of Rut towards proteins are analyzed using SPR technology based Biacore 3000 instrument (GE Healthcare). In the assay, proteins are immobilized to CM5 chips using a standard amine-coupling procedure (Biacore manual). The proteins to be covalently bound to the chips are diluted in 10 mM sodium acetate buffer (pH4.5) to a final concentration of 0.10 mg/ml. Before experiments, baseline is equilibrated with a continuous flow of running buffer (10 mM HEPES, 150 mM NaCl, 3 mM EDTA, and 0.005% (v/v) surfactant P20, pH7.4) for 2 hours. Subsequently, Rut with a gradient of concentrations is injected to the channels at a flow rate of 20 µL/min for 60 seconds, followed by disassociation for 120 seconds. The 1∶1 Langmuir binding fitting model in BIAevaluation software version 3.1 (Biacore) is used to determine the equilibrium dissociation constants (K Ds) of compounds. […] Different concentrations of PPARγ-LBD or RXRα-LBD are injected to the channel at a flow rate of 20 µL/min for 60 s, followed by disassociation for 120 s.

[2] = biological target: T3, RXRα-LBD/SRC1_613–773 interaction (Homo sapiens, UniProt P19793); test: SPR SRC1 recruitment assay; assay type: binding; conditions: 1 µM RXRα-LBD incubated with compound 1 hour
T3 construct: His-tag (N); made in house; host or cells: E. coli BL21 (DE3)
T3 sequence (P19793 227-458 limits assumed): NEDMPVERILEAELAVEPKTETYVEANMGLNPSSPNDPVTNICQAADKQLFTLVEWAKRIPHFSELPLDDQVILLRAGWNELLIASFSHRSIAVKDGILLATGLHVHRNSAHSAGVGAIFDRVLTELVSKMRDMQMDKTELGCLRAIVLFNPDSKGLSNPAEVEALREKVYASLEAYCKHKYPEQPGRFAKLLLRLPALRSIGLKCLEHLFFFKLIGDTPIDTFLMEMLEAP
T3 sequence (Q15788 613-773 partner limits assumed): as the sequence (Q15788 613-773 partner limits assumed) above
Method: as §1

[3] = biological target: interaction of RXRα with SRC1 (Homo sapiens, UniProt P19793); test: Yeast two-hybrid assay; conditions: AH109 strain, 48 hours
Chain of interaction of RXRα with SRC1 (P19793 223-462 limits assumed): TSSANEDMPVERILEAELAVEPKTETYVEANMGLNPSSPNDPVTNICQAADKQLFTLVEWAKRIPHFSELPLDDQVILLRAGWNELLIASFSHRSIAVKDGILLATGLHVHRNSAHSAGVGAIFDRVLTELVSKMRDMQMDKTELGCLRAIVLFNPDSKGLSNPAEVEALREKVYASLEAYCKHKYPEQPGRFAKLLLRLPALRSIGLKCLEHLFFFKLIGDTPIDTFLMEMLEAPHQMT
Chain of interaction of RXRα with SRC1 (Q15788 613-773 partner limits assumed): as the sequence (Q15788 613-773 partner limits assumed) above

PTP1B (D48A) = biological target: T4, PTP1B (D48A) (Homo sapiens, UniProt P18031, D48A); test: PTP enzyme inhibition assay, D48A mutant; assay type: biochemical
T4 construct: pGEX4T-1-PTP1B1–321; GST (N); made in house; host or cells: E. coli (BL21 (DE3) stated for the wild-type plasmid)
T4 sequence (P18031 1-321 D48A): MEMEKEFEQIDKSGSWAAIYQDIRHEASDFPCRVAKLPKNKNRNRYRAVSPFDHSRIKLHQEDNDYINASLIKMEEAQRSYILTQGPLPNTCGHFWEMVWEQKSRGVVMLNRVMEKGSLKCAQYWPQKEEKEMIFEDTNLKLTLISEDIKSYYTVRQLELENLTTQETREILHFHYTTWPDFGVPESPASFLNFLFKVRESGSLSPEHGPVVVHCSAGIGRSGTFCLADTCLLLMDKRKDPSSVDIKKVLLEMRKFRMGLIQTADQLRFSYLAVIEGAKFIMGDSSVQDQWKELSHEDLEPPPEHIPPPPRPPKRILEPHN
Method: The plasmid pGEX4T1-PTP1B (D48A) is generated by site-directed mutagenesis with pGEX4T1-PTP1B (WT) as template. The primer pairs are sense: 5′-[…]-3′ and antisense: 5′-[…]-3′.
The enzymatic activities of the recombinant PTPs are measured at 25°C using pNPP as substrate. The initial velocities of enzymatic reactions are determined by continuously measuring the absorbance at 405 nm every 15 s using a microplate spectrophotometer (Bio-Rad). […] To determine the inhibition type, each concentration of Rut (0, 50 and 75 µM) is incubated with PTP1B (0.3 µM) in reaction buffer (50 mM HEPES, pH7.0, 1 mM EDTA, and 100 mM NaCl) for 10 min and the reactions are initiated by different concentrations of pNPP (0.5–10 mM). The inhibition type is determined using double-reciprocal plots. In determination of the selectivity of Rut against PTPs, the result is referred as no inhibition when 100 µM Rut inhibits no enzyme activity. The same reaction systems are designed for all PTPs including PTP1B.

C57/BL6 DIO male mice = test: Diet-induced obese (DIO) mice model: fasting plasma glucose, OGTT, ITT, tolerability; assay type: in vivo
Method: All animals receive humane care, and the experimental procedures are performed according to the institutional ethical guidelines on animal care. C57/BL6 male mice are obtained from Shanghai SLAC Laboratory Animal Co. Ltd, and maintained under the temperature controlled at 25°C with a 12 h light-dark cycle. Eight-week-old male mice are fed regular chow or high fat diet (HFD, D12492i, from Research Diets Inc.) for 12 weeks. The DIO mice and normal lean mice are grouped randomly, and each group contains 7 mice. […] Individual body weight and fasting plasma glucose are measured weekly. Averaged daily food intake is measured twice a week. At the termination of the study, mice are dissected, and the weight of tissues (liver, kidney, spleen, heart, perirenal fat, and epididymis fat) is determined.
Male mice treated with compounds for 8 weeks are used for oral glucose tolerance test. After 6 h fasting, plasma glucose levels are measured and glucose (2 g/kg) is loaded. Blood samples are taken from the tail vein at different time points (0, 30, 90, and 120 min). In insulin tolerance tests, after 6 h fasting, plasma glucose levels are measured and insulin (1 U/kg) is administered by IP injection. Blood samples are taken at indicated time points (0, 15, 30, 45, 60, 90, and 120 min). Blood glucose levels are measured by ACCU-CHEK Active blood sugar testmeter (Roche). Statistical evaluation is performed via two-way ANOVA. Significant difference at P<0.05: *, P<0.01: **.

T1 sequence (Q96RI1 whole entry): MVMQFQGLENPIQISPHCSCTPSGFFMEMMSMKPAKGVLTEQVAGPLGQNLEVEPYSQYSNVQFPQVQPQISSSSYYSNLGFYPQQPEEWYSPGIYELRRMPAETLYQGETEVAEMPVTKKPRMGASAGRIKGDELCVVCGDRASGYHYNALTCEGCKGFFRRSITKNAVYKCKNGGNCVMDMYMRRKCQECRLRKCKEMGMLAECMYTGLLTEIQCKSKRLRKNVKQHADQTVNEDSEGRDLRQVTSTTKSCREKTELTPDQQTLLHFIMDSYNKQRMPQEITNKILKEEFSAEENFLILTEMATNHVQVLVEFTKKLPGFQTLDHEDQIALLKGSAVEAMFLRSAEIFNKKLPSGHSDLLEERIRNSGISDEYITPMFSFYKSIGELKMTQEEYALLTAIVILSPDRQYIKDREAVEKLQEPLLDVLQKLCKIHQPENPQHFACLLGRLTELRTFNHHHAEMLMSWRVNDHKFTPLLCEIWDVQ
T1 sequence (P19793 whole entry): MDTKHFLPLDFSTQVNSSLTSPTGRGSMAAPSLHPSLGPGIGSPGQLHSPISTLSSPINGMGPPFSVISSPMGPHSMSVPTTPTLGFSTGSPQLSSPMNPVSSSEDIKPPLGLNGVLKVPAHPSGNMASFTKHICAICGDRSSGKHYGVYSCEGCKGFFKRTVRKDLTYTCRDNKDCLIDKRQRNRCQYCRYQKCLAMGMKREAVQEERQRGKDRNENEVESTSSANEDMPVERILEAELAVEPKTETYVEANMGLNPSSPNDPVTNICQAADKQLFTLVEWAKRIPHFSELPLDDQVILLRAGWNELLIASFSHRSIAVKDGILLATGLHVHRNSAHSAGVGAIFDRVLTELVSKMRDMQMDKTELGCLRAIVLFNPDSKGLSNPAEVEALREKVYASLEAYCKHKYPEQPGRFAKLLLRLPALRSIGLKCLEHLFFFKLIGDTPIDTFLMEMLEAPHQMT

C=CC(C)(C)c1cc2cc3c(cc2oc1=O)O[C@H](C(C)(C)OC(C)=O)C3 [(+)-Rutamarin]
activity of FXR-response element (FXRE) (FXR: RXRα): without influencing | effect on interaction between PPARγ-LBD and SRC1 [1]: cannot enhance | effect on interaction between RXRα-LBD and SRC1 [2]: efficiently enhances | interaction of SRC1 with RXRα (α-galactosidase activity) [3]: dose-dependently enhances | IC50 (PTP1B (D48A)): 14.8 µM | fasting plasma glucose level (C57/BL6 DIO male mice; DIO mice, Rut 2 mg/kg IP, 2 weeks): efficiently improve | fasting plasma glucose vs control obese group (C57/BL6 DIO male mice; DIO mice, Rut 10 mg/kg IP daily, 8 weeks): significantly lower | insulin tolerance test, glucose elimination vs vehicle (C57/BL6 DIO male mice; DIO mice, Rut 10 mg/kg, insulin 1 U/kg IP): eliminate glucose at a faster rate | plasma glucose after glucose challenge (glucose tolerance test) vs vehicle (C57/BL6 DIO male mice; DIO mice, Rut 10 mg/kg, oral glucose 2 g/kg): much lower | food consumption vs vehicle-treated mice (C57/BL6 DIO male mice; Rut 10 mg/kg IP): not significantly different | body weights (C57/BL6 DIO male mice; Rut 10 mg/kg IP, same course in vehicle-treated mice): slightly decrease in the first four weeks | insulin tolerance test vs vehicle (C57/BL6 DIO male mice; lean mice, Rut 10 mg/kg): no obvious difference | fasting plasma glucose vs vehicle (C57/BL6 DIO male mice; lean mice, Rut 10 mg/kg IP daily, 8 weeks): no obvious difference
